Data on three molecules can be found in paper PMC4041848, “Differential Effects of Omeprazole and Lansoprazole Enantiomers on Aryl Hydrocarbon Receptor in Human Hepatocytes and Cell Lines” (PLoS ONE, 2014).

Series [1] deals with aryl hydrocarbon receptor AhR. Description: AhR gene reporter assay, antagonist mode (with TCDD). As to conditions: read-out: AhR antagonist IC50; AZ-AHR cells, 24 h, in the presence of TCDD (5 nM), average of four passages. As for the experimental part:
(§1) A stably transfected gene reporter cell line AZ-AHR, derived from human hepatoma HepG2 cells transfected with a construct containing several AhR binding sites upstream of a luciferase reporter gene, was used for assessment of AhR transcriptional activity. Cells were incubated for 24 h with tested compounds and/or vehicle (DMSO; 0.1% v/v), in the presence or absence of TCDD (10 nM; AZ-AHR cells) or DEX (100 nM; AZ-GR cells). After the treatments, cells were lysed and luciferase activity was measured. In parallel, cell viability was determined by conventional MTT test.
Figure 1 Effect of omeprazole and lansoprazole enantiomers on transcriptional activity of aryl hydrocarbon receptor AhR in human gene reporter cell line AZ-AHR. The cells were seeded in 96-well plates and stabilized for 16 h. […] After the treatment, MTT test was performed and absorbance was measured at 540 nm. […] The data are the mean from experiments from six different passages of cells and are expressed as a percentage of viability of control cells. The values of IC50 were calculated and are indicated in a figure. […] After the treatments, cells were lysed and luciferase activity was measured. […] Data are expressed as a fold induction of luciferase activity over control cells (Panels C and D - agonist mode) or as a percentage of maximal induction attained by TCDD (Panels E and F- antagonist mode). […]
(In general: In a reporter assay the amount or activity of a reporter protein is the signal.)

For another series, the system named is AZ-AHR cells. Kind of series: MTT cytotoxicity test in AZ-AHR reporter cells. The settings on record: AZ-AHR cells, 24 h, MTT, concentrations up to 250 µM. As to the method:
as §1
(§2) In the first series of experiments, the cytotoxicity of tested compounds was assessed in gene reporter cell line AZ-AHR. For this purpose, the cells were incubated for 24 h with S-OME, R-OME, rac-OME, S-LAN, R-LAN and rac-LAN at concentration ranging from 100 pM to 250 µM. The vehicle was DMSO (0.1% v/v). After the treatment, a conventional MTT test was performed.
(§3) Figure 1 Effect of omeprazole and lansoprazole enantiomers on transcriptional activity of aryl hydrocarbon receptor AhR in human gene reporter cell line AZ-AHR. The cells were seeded in 96-well plates and stabilized for 16 h. Panels A and B: Cells were incubated for 24 h with S-OME, R-OME, rac-OME, S-LAN, R-LAN and rac-LAN at concentrations ranging from 10^−10 M to 10^−4 M. The vehicle was DMSO (0.1% v/v). After the treatment, MTT test was performed and absorbance was measured at 540 nm. Treatments were performed in triplicates. The data are the mean from experiments from six different passages of cells and are expressed as a percentage of viability of control cells. The values of IC50 were calculated and are indicated in a figure. Panels C - F: AZ-AHR cells were incubated for 24 h with S-OME, R-OME, rac-OME, S-LAN, R-LAN and rac-LAN at concentrations ranging from 10^−10 M to 10^−4 M in the absence (Panels C and D - agonist mode) or in the presence (Panels E and F- antagonist mode) of TCDD (5 nM). The vehicle was DMSO (0.1% v/v). After the treatments, cells were lysed and luciferase activity was measured. Treatments were performed in triplicates in five (agonist mode) or four (antagonist mode) independent cell passages. […] Data are expressed as a fold induction of luciferase activity over control cells (Panels C and D - agonist mode) or as a percentage of maximal induction attained by TCDD (Panels E and F- antagonist mode).

In series [2] the test system is aryl hydrocarbon receptor AhR. Description: AhR gene reporter assay, agonist mode. As to conditions: for EC50 at 24 h: human. As to the method: as §1, §3
Gene reporter assays were performed in two different experimental layouts. […] In antagonist mode, cells were incubated with increasing concentrations of tested compounds in combination with model agonist (TCDD; 5 nM), and half-maximal inhibitory concentrations (IC50) were calculated. […] The efficacy was calculated at concentration of compounds of 100 µM and compared to 5 nM TCDD (Figure 1C).

Another series has as its system CYP1A2 mRNA. Description: CYP1A2 mRNA induction in primary human hepatocytes (qRT-PCR). As to conditions: hepatocyte culture HH52, 24 h, 100 µM. From the text:
(§4) Primary human hepatocytes used in this study were obtained from two sources: (i) from multiorgan donor HH52; the use of liver cells of donor HH52 was approved by “Ethical committee at the Faculty Hospital Olomouc”,and it was in accordance with Transplantation law #285/2002 Sb; “Ethical committee at the Faculty Hospital Olomouc” waived the authors from obtaining consent from the next of kin, regarding human hepatocytes obtained from liver donor HH52. (ii) long-term human hepatocytes in monolayer Batch HEP220770 (person), Batch HEP220774 (person) were purchased from Biopredic International (Biopredic International, Rennes, France). Cells were cultured in serum-free medium. Cultures were maintained at 37°C and 5% CO2 in a humidified incubator.
Total RNA was isolated using TRI Reagent (Molecular Research Center, Cincinnati, OH, USA). cDNA was synthesized from 1000 ng of total RNA using M-MLV Reverse Transcriptase (Finnzymes, Espoo, Finland) at 42°C for 60 min in the presence of random hexamers (Takara, Shiga, Japan). qRT-PCR was carried out using LightCycler FastStart DNA MasterPLUS SYBR Green I (Roche Diagnostic Corporation, Prague, Czech Republic) on a Light Cycler 480 II apparatus (Roche Diagnostic Corporation). CYP1A1, CYP1A2 and GAPDH mRNAs were determined as described previously. Measurements were performed in triplicates. […]

Series [3] can be described thus: MTT cytotoxicity test in AZ-AHR reporter cells. As to conditions: human. As to the method:
as §1, §2, §3
(In general: Formazan colour is commonly taken as a measure of viable cells.)

Series [4] has as its system CYP1A1 mRNA. Kind of series: CYP1A1 mRNA induction in primary human hepatocytes (qRT-PCR). The settings on record: hepatocyte culture Hep220770, 24 h.
From the text: as §4
(§5) Total RNA was isolated using TRI Reagent (Molecular Research Center, Cincinnati, OH, USA). cDNA was synthesized from 1000 ng of total RNA using M-MLV Reverse Transcriptase (Finnzymes, Espoo, Finland) at 42°C for 60 min in the presence of random hexamers (Takara, Shiga, Japan). qRT-PCR was carried out using LightCycler FastStart DNA MasterPLUS SYBR Green I (Roche Diagnostic Corporation, Prague, Czech Republic) on a Light Cycler 480 II apparatus (Roche Diagnostic Corporation). CYP1A1, CYP1A2 and GAPDH mRNAs were determined as described previously. Measurements were performed in triplicates. Gene expression was normalized to GAPDH as a housekeeping gene.
We examined a capability of omeprazole and lansoprazole to induce CYP1A1 and CYP1A2 mRNA and protein in primary human hepatocytes, which is a more physiological and metabolically competent cell model. Human hepatocytes were treated for 24 h or 48 h with TCDD (5 nM), vehicle (DMSO; 0.1% V/V) and tested compounds.
Figure 3 Effects of omeprazole and lansoprazole enantiomers on CYP1A1 mRNA, protein and EROD activity in primary human hepatocytes. Panel A and Panel B: RT-PCR analyses of CYP1A1 and CYP1A2 mRNA and western blots of CYP1A1 and CYP1A2 from two different cultures (HH52 and Hep220770) are shown. Human hepatocytes were incubated for 24 h (mRNA analysis) or 48 (protein analysis) with S-OME, R-OME, rac-OME, S-LAN, R-LAN, rac-LAN, TCDD and vehicle (DMSO; 0.1% v/v). RT-PCR data are the mean ± SD from triplicate measurements and are expressed as fold induction over vehicle-treated cells. Data were normalized to GAPDH mRNA levels. Density of bands in western blots was quantified by densitometry and the values are indicated along with respective blots. Panel C: EROD and cytotoxicity: Human hepatocytes (culture Hep220774) were treated for 24 h with S-OME, R-OME, rac-OME, S-LAN, R-LAN, rac-LAN, TCDD and vehicle (DMSO; 0.1% v/v). Upper bar graph: An activity of 7-ethoxyresorufin- O-deethylase (EROD) was measured by fluorescent spectrophotometry with 530 nm excitation and 590 nm emission filters. Treatments were performed in triplicates. The data are expressed as fold induction over the value from control cells. Lower bar graph: A conventional MTT test was performed and absorbance was measured at 540 nm. Treatments were performed in triplicates. The data are expressed as percentage of viability of control cells.
For orientation: Quantitative PCR measures a nucleic acid by following its amplification.

Series [5] deals with CYP1A1 mRNA. As to conditions: HepG2, 24 h, 250 µM. As to the method: as §5
Treatments were performed in triplicates.

The subject of the next series is CYP1A1 protein. Description: CYP1A1 protein induction in primary human hepatocytes (western blot). The settings on record: hepatocyte culture Hep220770, 48 h, 100 µM. From the text: Primary human hepatocytes used in this study were obtained from two sources: (i) from multiorgan donor HH52; the use of liver cells of donor HH52 was approved by “Ethical committee at the Faculty Hospital Olomouc”,and it was in accordance with Transplantation law #285/2002 Sb; “Ethical committee at the Faculty Hospital Olomouc” waived the authors from obtaining consent from the next of kin, regarding human hepatocytes obtained from liver donor HH52. (ii) long-term human hepatocytes in monolayer Batch HEP220770 (person), Batch HEP220774 (person) were purchased from Biopredic International (Biopredic International, Rennes, France). Cells were cultured in serum-free medium. […]
Total protein extracts were prepared from cells cultured on 6-well plates. […] Supernatant was collected and the protein content was determined by the Bradford reagent. […] The density of bands was measured by densitometry. […]
Figure 3 Effects of omeprazole and lansoprazole enantiomers on CYP1A1 mRNA, protein and EROD activity in primary human hepatocytes. […] RT-PCR data are the mean ± SD from triplicate measurements and are expressed as fold induction over vehicle-treated cells. […] Density of bands in western blots was quantified by densitometry and the values are indicated along with respective blots. […] The data are expressed as fold induction over the value from control cells. […]

Where [6] appears, read: AZ-AHR cells, 24 h, compared to 5 nM TCDD, calculated at 100 µM compound (stated for omeprazole).

Like-named read-outs stand apart in the source and are kept apart here.

Turning to `COc1ccc2nc([S@+]([O-])Cc3ncc(C)c(OC)c3C)[nH]c2c1` [R-OME, R-omeprazole], the IC50 – broadly, the concentration at which inhibition is half-maximal – in series [1] was determined as 54.8 ± 25.9 µM. Also, the “cytotoxicity” value in the series on AZ-AHR cells is “not cytotoxic”. For the same molecule, the AhR agonist efficacy in series [2] came out at 48.6±26.8%. For the same molecule, the concentration for a half-maximal effect (EC50) – broadly, the concentration that produces a half-maximal response – in series [2] (read-out: AhR agonist EC50, AZ-AHR cells, 24 h, luciferase, average of five passages) came to 35.1 ± 3.7 µM. Also, in the series on CYP1A2 mRNA, the “CYP1A2 mRNA induction” value is listed as 71 % of TCDD induction.

Molecule `Cc1c(OCC(F)(F)F)ccnc1C[S+]([O-])c1nc2ccccc2[nH]1` (racemic) [rac-LAN, rac-lansoprazole] had an IC50 at 24 h in series [3] above 250 µM. For the same molecule, the AhR agonist efficacy in series [2] (setting [6]) is reported as 22.8±5.6%. Further, the concentration for a half-maximal effect (EC50) at 24 h in series [2] stood at 2.4 ± 0.1 µM. In addition, the “CYP1A1 mRNA induction” value in the series on CYP1A1 mRNA [4] (100 µM) was determined as 358 fold.

For `COc1ccc2[nH]c([S+]([O-])Cc3ncc(C)c(OC)c3C)nc2c1` (racemic) [rac-OME, rac-omeprazole], the figures for the “CYP1A1 mRNA induction” value in the series on CYP1A1 mRNA [5], with CYP1A1 mRNA [4] (100 µM) and in the series on CYP1A1 mRNA [4] (250 µM) were “approximately 180 fold”, 740 fold and 706 fold, respectively. Also, in the series with AZ-AHR cells, the “cytotoxicity” value is reported as “not cytotoxic”. In series [3], this molecule came in with an IC50 at 24 h above 250 µM. Further, the AhR agonist efficacy in series [2] (setting [6]) was 51.4±30.4%. In addition, the concentration for a half-maximal effect (EC50) at 24 h in series [2] worked out at 30.1 ± 2.2 µM. In the series with CYP1A1 protein, the “CYP1A1 protein induction” value was “strong induction”.
